Laboratory results: PubChem BioAssay AID1963845 (Molecular Pharmacology Branch, DTP, NCI, 2024)
“And” between values parts separate entries of the source, which are not always exact repeats. Equal entries are not always repeated.

System: 429239-143-T-J1-PDC complex spheroid viability
Assay: Anticancer human tumor 429239-143-T-J1-PDC patient-derived small cell lung carcinoma cell line growth inhibition [POLQ]
Settings: for viability, T/C: stronger effect = lower value
Description: Multicellular complex tumor spheroid response to Polymerase (POL) inhibitors (novobiocin, ART-558, RP6685) in combination with a variety of drugs and investigational agents in selected tumor cell lines
The POL inhibitors (novobiocin, ART-558, and RP6685) were evaluated both individually and in combination with standard of care and investigational anticancer small molecules within a complex spheroid model of solid tumors. . Complex spheroids include a stromal component modeled by human endothelial cells (HUVEC) and fibroblasts modeled by human mesenchymal stem cells (MSCs). The concentration ranges selected for each drug and investigational agent were based upon clinically achievable concentrations if the clinical Cmax of the agent was known.
Compounds. The drugs and investigational agents: novobiocin (NSC847541), ART-558 (NSC835418), RP-6685 (NSC848927), peposertib (NSC802822), ceralasertib (NSC780249), elimusertib (NSC800525), camonsertib (NSC841442), AZD-1390 (NSC803789), olaparib (NSC753686), talazoparib (NSC767125), rucaparib (NSC756644), sotorasib (NSC818433), MRTX-1133 (NSC836407), SN-38 (NSC673596), topotecan (NSC609699), epotoside (NSC141540), doxorubicin (NSC123127), gemcitabine (NSC613327), 5-fluorouracil (NSC19893), paclitaxel (NSC125973), vemurafenib (NSC761431), MSA-2 (NSC828583), SN-011 (NSC837082), adavosertib (NSC754352), prexasertib (NSC758257), carboplatin (NSC241240) and oxaliplatin (NSC266046), were obtained from the National Cancer Institute (NCI) Developmental Therapeutics Program Chemical Repository (21). The FDA-approved anticancer drug set is available from the Developmental Therapeutics Program at https://dtp.cancer.gov/organization/dscb/obtaining/. […] The stock solutions were prepared in dimethyl sulfoxide (DMSO, Sigma-Aldrich, St. Louis, MO, cat. D2650), except for the platinum compounds which were prepared in saline (Quality Biological, Gaithersburg, MD, cat. 114-055-101), at 800-fold the tested concentration and stored at -70 degrees C prior to their use. All drugs and investigational agents were tested over a range starting from a high concentration at or near the clinical Cmax and decreasing in half-log increments. If the clinical Cmax for an agent had not been determined, the highest concentration tested was 10 microM, except for SN-38, which was tested at a high concentration of 1 microM.
Cell Culture. All cells were maintained in an incubator at 37 degrees C and 5% CO2 with 95% humidity. The PDC lines were cultured according to standard operating procedures established by the NCI PDMR (https://pdmr.cancer.gov). Table 3 of the manuscript, lists the cell lines along with the number of the three cell types plated to form the mct-spheroids and media for tumor cell growth. After thawing, all PDC lines, except 997537-175-T-J1-PDC and 415267-285-R-J2-PDC, were cultured in Matrigel-coated flasks prepared with a working solution of 1X Ham's F-12 nutrient mix, without supplementation (Thermo Fisher Scientific, cat. 11765054), 100 U/mL penicillin-streptomycin (Thermo Fisher Scientific, cat. 15140122), and 2.5% Matrigel (Corning Inc., Corning, NY, cat. 354248) for the first three passages. The two PDC lines 997537-175-T-J1-PDC and 415267-285-R-J2-PDC were cultured on uncoated flasks. The 857933-349-R-J2-PDC line was cultured in 6C/Colon 1B media containing advanced DMEM/F-12 (Thermo Fisher Scientific, cat. 12634028), 10 mM HEPES (Thermo Fisher Scientific, cat. 15630080), 1X GlutaMAX supplement (Thermo Fisher Scientific, cat. 35050061), 0.1 mg/mL primocin (InvivoGen, San Diego, CA, cat. ant-pm-2), 10% defined fetal bovine serum, heat inactivated (HyClone Laboratories Inc., Logan, UT, cat. SH30070.03HI), 50% L-WRN conditioned media (ATCC, cat. CRL-3276), 1.25 mM N-Acetyl-L-cysteine (Sigma-Aldrich, cat. A9165), 10 mM nicotinamide (Sigma-Aldrich, cat. N0636), 1X B-27 supplement (Thermo Fisher Scientific, cat. 17504044), 1X N-2 supplement (Thermo Fisher Scientific, cat. […]
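Also: luminescence signal used as surrogate measure of viable cells; spheroids exposed to compounds for seven days before readout.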
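For viability, T/C in this document: 100% = DMSO vehicle control viability as luminescence relative to vehicle.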

CCCS(=O)(=O)Nc1ccc(F)c(C(=O)c2c[nH]c3ncc(-c4ccc(Cl)cc4)cc23)c1F was tested, and the viability, T/C (compound 0.0316 µM) was 94.3% and 101% and 99.8%, the viability, T/C (compound 0.1 µM) was 96.1% and 110% and 85.9% and the viability, T/C (compound 0.316 µM) was 100% and 104% and 94.3%. For the same molecule, the viability, T/C (compound 1 µM) was 92.9% and 106% and 89.7%, the viability, T/C (compound 3.16 µM) was 97.2% and 113% and 91% and the viability, T/C (compound 10 µM) was 79.2% and 84.4% and 48.5%. For the same molecule, the IC50 (curve of compound) was > 10 µM and 9.61 µM.
C=CCn1c(=O)c2cnc(Nc3ccc(N4CCN(C)CC4)cc3)nc2n1-c1cccc(C(C)(C)O)n1 was tested, and the viability, T/C (compound 0.00316 µM) was 99.5% and 101% and 95.1%, the viability, T/C (compound 0.01 µM) was 103% and 107% and 104% and the viability, T/C (compound 0.0316 µM) was 89.4% and 120% and 103%. For the same molecule, the viability, T/C (compound 0.1 µM) was 82.4% and 97.7% and 98.2%, the viability, T/C (compound 0.316 µM) was 91.7% and 94% and 88.9% and the viability, T/C (compound 1 µM) was 17.4% and 20% and 18.9%. For the same molecule, the IC50 (curve of compound) was 0.603 µM and 0.621 µM and 0.6 µM.
COc1cccc(OCCCN)c1-c1cc(Nc2cnc(C#N)cn2)n[nH]1 + Nc1ccc(C#CCN(C(=O)Cc2ncc(C(F)(F)F)cc2C(F)(F)F)c2ccc(F)cc2)nn1 was tested, and the IC50 (curve of first compound, second compound 0.0316 µM) was 0.398 µM, the IC50 (curve of first compound, second compound 0.1 µM) was 0.305 µM and the IC50 (curve of first compound, second compound 0.316 µM) was 0.219 µM. The IC50 (curve of first compound, second compound 1 µM) was 0.224 µM, the IC50 (curve of first compound, second compound 3.16 µM) was 0.234 µM and the IC50 (curve of first compound, second compound 10 µM) was 0.16 µM. It also gave a viability, T/C (second compound 0.0316 µM, first compound 0.00316 µM) of 91.8%, a viability, T/C (second compound 0.0316 µM, first compound 0.01 µM) of 94.8% and a viability, T/C (second compound 0.0316 µM, first compound 0.0316 µM) of 87.6%. For the same molecule, the viability, T/C (second compound 0.0316 µM, first compound 0.1 µM) was 72.7%, the viability, T/C (second compound 0.0316 µM, first compound 0.316 µM) was 55.2% and the viability, T/C (second compound 0.0316 µM, first compound 1 µM) was 33.3%. The viability, T/C (second compound 0.1 µM, first compound 0.00316 µM) was 95.1%, the viability, T/C (second compound 0.1 µM, first compound 0.01 µM) was 97.2% and the viability, T/C (second compound 0.1 µM, first compound 0.0316 µM) was 83.1%. For the same molecule, the viability, T/C (second compound 0.1 µM, first compound 0.1 µM) was 71.3%, the viability, T/C (second compound 0.1 µM, first compound 0.316 µM) was 49.4% and the viability, T/C (second compound 0.1 µM, first compound 1 µM) was 28.7%. It also gave a viability, T/C (second compound 0.316 µM, first compound 0.00316 µM) of 103%, a viability, T/C (second compound 0.316 µM, first compound 0.01 µM) of 98.9% and a viability, T/C (second compound 0.316 µM, first compound 0.0316 µM) of 98.7%. The viability, T/C (second compound 0.316 µM, first compound 0.1 µM) was 65.3%, the viability, T/C (second compound 0.316 µM, first compound 0.316 µM) was 45.4% and the viability, T/C (second compound 0.316 µM, first compound 1 µM) was 33.6%. For the same molecule, the viability, T/C (second compound 1 µM, first compound 0.00316 µM) was 102%, the viability, T/C (second compound 1 µM, first compound 0.01 µM) was 90.2% and the viability, T/C (second compound 1 µM, first compound 0.0316 µM) was 83.8%. It also gave a viability, T/C (second compound 1 µM, first compound 0.1 µM) of 68.8%, a viability, T/C (second compound 1 µM, first compound 0.316 µM) of 40.3% and a viability, T/C (second compound 1 µM, first compound 1 µM) of 27.1%. It also gave a viability, T/C (second compound 3.16 µM, first compound 0.00316 µM) of 105%, a viability, T/C (second compound 3.16 µM, first compound 0.01 µM) of 89.1% and a viability, T/C (second compound 3.16 µM, first compound 0.0316 µM) of 90.6%. For the same molecule, the viability, T/C (second compound 3.16 µM, first compound 0.1 µM) was 74.5%, the viability, T/C (second compound 3.16 µM, first compound 0.316 µM) was 40.3% and the viability, T/C (second compound 3.16 µM, first compound 1 µM) was 24.5%. It also gave a viability, T/C (second compound 10 µM, first compound 0.00316 µM) of 102%, a viability, T/C (second compound 10 µM, first compound 0.01 µM) of 86.5% and a viability, T/C (second compound 10 µM, first compound 0.0316 µM) of 75.7%. It also gave a viability, T/C (second compound 10 µM, first compound 0.1 µM) of 60%, a viability, T/C (second compound 10 µM, first compound 0.316 µM) of 36.2% and a viability, T/C (second compound 10 µM, first compound 1 µM) of 26.1%.
O=C(Nc1ccc(O)c(NS(=O)(=O)c2ccc(F)cc2)c1)c1ccc(-c2ccccc2)cc1 was tested, and the viability, T/C (compound 0.0316 µM) was 100% and 92.5% and 95.2%, the viability, T/C (compound 0.1 µM) was 106% and 123% and 96.5% and the viability, T/C (compound 0.316 µM) was 105% and 106% and 107%. For the same molecule, the viability, T/C (compound 1 µM) was 103% and 107% and 99.5%, the viability, T/C (compound 3.16 µM) was 113% and 122% and 114% and the viability, T/C (compound 10 µM) was 103% and 119% and 63.5%. For the same molecule, the IC50 (curve of compound) was > 10 µM.
With O=c1[nH]cc(F)c(=O)[nH]1 the viability, T/C (compound 0.0316 µM) was 89.3% and 95% and 104%, the viability, T/C (compound 0.1 µM) was 103% and 106% and 96% and the viability, T/C (compound 0.316 µM) was 92.2% and 102% and 97.8%. The viability, T/C (compound 1 µM) was 84% and 89.3% and 89.6%, the viability, T/C (compound 3.16 µM) was 70.4% and 45.9% and 66.5% and the viability, T/C (compound 10 µM) was 45.4% and 32.2% and 40.9%. For the same molecule, the IC50 (curve of compound) was 8.2 µM and 2.83 µM and 6.66 µM.
For CC(=O)O[C@H]1C(=O)[C@@]2(C)[C@H]([C@H](OC(=O)c3ccccc3)[C@]3(O)C[C@H](OC(=O)[C@H](O)[C@@H](NC(=O)c4ccccc4)c4ccccc4)C(C)=C1C3(C)C)[C@]1(OC(C)=O)CO[C@@H]1C[C@@H]2O, the viability, T/C (compound 0.00949 µM) was 62.4% and 68.4% and 14%, the viability, T/C (compound 0.03 µM) was 18.6% and 19.8% and 13.2% and the viability, T/C (compound 0.0949 µM) was 14.8% and 17.6% and 11.4%. The viability, T/C (compound 0.3 µM) was 19.5% and 16.1% and 12.9%, the viability, T/C (compound 0.949 µM) was 19.7% and 25.1% and 11.1% and the viability, T/C (compound 3 µM) was 29.5% and 28.1% and 14%. The IC50 (curve of compound) was 0.0134 µM and 0.0149 µM and < 0.00949 µM.
